From patent publication US20260138961A1, “MODULATORS OF MITOCHONDRIAL DNA REPLICATION” (Pretzel Therapeutics, Inc., priority 2022, published 2026)

Molecular target: T1, wild type human POLγ (POLγA:WT) (Homo sapiens, UniProt P54098)
T1 sequence (P54098 1-1239): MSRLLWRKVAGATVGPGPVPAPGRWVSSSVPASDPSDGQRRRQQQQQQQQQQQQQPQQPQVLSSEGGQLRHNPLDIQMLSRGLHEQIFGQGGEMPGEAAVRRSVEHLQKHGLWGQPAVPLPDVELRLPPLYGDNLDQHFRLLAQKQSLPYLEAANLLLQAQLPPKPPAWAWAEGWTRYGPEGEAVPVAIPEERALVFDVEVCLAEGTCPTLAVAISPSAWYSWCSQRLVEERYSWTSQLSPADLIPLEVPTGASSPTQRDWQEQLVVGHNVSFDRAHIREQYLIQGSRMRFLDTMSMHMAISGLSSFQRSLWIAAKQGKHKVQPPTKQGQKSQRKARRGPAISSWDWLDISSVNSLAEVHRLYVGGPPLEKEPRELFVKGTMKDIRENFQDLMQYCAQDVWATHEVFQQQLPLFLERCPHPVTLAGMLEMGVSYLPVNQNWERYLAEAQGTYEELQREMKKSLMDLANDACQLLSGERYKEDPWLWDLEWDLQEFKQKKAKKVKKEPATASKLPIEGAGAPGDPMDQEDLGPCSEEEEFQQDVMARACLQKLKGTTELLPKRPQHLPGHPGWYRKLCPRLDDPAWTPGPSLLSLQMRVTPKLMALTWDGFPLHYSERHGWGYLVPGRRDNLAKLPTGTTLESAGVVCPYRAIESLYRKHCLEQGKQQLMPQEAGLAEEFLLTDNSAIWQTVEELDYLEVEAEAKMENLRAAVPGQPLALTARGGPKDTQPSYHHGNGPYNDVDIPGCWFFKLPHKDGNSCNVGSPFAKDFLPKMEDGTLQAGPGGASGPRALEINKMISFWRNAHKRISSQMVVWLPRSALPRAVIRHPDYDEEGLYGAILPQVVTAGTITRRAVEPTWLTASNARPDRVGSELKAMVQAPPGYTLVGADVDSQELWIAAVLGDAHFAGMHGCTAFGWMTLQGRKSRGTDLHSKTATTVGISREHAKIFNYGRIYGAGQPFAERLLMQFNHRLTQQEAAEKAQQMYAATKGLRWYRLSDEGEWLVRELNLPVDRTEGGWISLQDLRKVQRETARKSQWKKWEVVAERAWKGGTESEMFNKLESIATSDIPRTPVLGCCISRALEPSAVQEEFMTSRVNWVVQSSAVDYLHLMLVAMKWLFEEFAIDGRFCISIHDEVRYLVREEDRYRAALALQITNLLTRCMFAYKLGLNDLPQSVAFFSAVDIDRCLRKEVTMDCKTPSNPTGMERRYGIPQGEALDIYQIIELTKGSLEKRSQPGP
T1 sequence (Q9UHN1 1-485 partner): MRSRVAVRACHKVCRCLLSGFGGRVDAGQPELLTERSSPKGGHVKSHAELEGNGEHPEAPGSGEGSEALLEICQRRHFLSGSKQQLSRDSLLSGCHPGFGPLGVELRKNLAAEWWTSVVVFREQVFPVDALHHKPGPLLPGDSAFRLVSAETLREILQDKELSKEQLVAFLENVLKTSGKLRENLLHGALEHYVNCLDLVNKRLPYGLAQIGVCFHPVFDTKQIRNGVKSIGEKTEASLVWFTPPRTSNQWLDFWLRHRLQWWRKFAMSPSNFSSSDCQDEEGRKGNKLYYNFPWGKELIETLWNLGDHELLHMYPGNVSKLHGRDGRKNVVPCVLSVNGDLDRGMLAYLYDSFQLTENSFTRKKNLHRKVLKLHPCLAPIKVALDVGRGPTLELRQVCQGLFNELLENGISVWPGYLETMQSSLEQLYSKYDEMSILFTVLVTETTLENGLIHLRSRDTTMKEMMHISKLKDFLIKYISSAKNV
Assay: DNA polymerization assay, wild type POLγ
Type: biochemical
Conditions: 0.1 μM dNTP, read-out: WT AC50 (μM) at 0.1 μM

AC50 [µM] | SMILES
> 100 | Cc1csc(-c2ccccc2NS(=O)(=O)c2cc(C)c(Cl)cc2C)n1 [Example 80, 4-chloro-2,5-dimethyl-N-(2-(4-methylthiazol-2-yl)phenyl)benzenesulfonamide]

Same assay, conditions: 100 μM dNTP, read-out: WT AC50 (μM) at 100 μM

AC50 [µM] | SMILES
6 | Cc1cnc(-c2ccc(NS(=O)(=O)c3cc(C)c(Cl)cc3C)cc2)s1 [Example 83, 4-chloro-2,5-dimethyl-N-(4-(5-methylthiazol-2-yl)phenyl)benzenesulfonamide]
4 | Cc1cc(S(=O)(=O)Nc2ccc3ccn(C)c3c2)c(C)cc1Cl [Example 72, 4-chloro-2,5-dimethyl-N-(1-methyl-1H-indol-6-yl)benzenesulfonamide]
2 | Cc1nc2ccc(NS(=O)(=O)c3cc(C)c(Cl)cc3C)cc2s1 [Example 73, 4-chloro-2,5-dimethyl-N-(2-methylbenzo[d]thiazol-6-yl)benzenesulfonamide]

More lines, now with the values behind:

SMILES | AC50 [µM]
Cc1cc(S(=O)(=O)Nc2csc(-c3ccccc3)n2)c(C)cc1Cl [Example 81, 4-chloro-2,5-dimethyl-N-(2-phenylthiazol-4-yl)benzenesulfonamide] | 0.2
Cc1cc(S(=O)(=O)Nc2cccc(-c3ncc(CN(C)C)s3)c2)c(C)cc1Cl [Example 87, 4-chloro-N-(3-(5-((dimethylamino)methyl)thiazol-2-yl)phenyl)-2,5-dimethylbenzenesulfonamide] | 4
Cc1cc(S(=O)(=O)Nc2cccc(-c3ncc(CO)s3)c2)c(C)cc1Cl [Example 89, 4-chloro-N-(3-(5-(hydroxymethyl)thiazol-2-yl)phenyl)-2,5-dimethylbenzenesulfonamide] | 0.3
Cc1cc(S(=O)(=O)Nc2cccc(-c3ncc(C4CC4)s3)c2)c(C)cc1Cl [Example 76, 4-chloro-N-(3-(5-cyclopropylthiazol-2-yl)phenyl)-2,5-dimethylbenzenesulfonamide] | 0.4
